The values below come from patent US7550469B2, “Heterocyclic amide derivatives and their use as dopamine D3 receptor ligands” (Aventis Pharmaceuticals Inc., priority 2001, dated 2009).

The target of series [1] is Alpha-1 adrenergic receptors from rat brain cortex. The series is described as follows: [3H]Prazosin binding to alpha-1 adrenergic receptors from rat brain cortex (Protocol 4). An excerpt: [^3H]Prazosin Binding to Alpha-1 Adrenergic Receptors from Rat Brain Cortex
Objective: This in vitro assay is designed as a screen to identify compounds displaying a affinity for the a, adrenoceptor subtype in membranes from rat cortex. It measures the ability of the test compounds to displace [^3H]prazosin from the α1 sites.
Membrane Preparation: Rat brain tissue can be obtained from either fresh (male Wistar rats; 200-250 g) or frozen (male Sprague-Dawley 200-250 g from Harlan; cat. #BT-403) stocks. The cortex is dissected, homogenized in 50 vol (wet weight) ice-cold 50 mM Tris buffer (pH 7.7 at 25° C.). The homogenate is centrifuged at 48,000 g for 10 min, the pellet is resuspended in 50 mM Tris buffer and centrifuged a second time. The second pellet (P2) is resuspended to yield a concentration of 115 mg wet weight per 10 ml. […] Membranes should be mixed just before addition to ensure an even suspension. […] This is diluted to a 0.5 mM stock in dH2O. Serial dilutions in Buffer A are made from which 50 μl additions to the plate are made in duplicate in order to achieve the final concentrations desired. Typically, one 96 well plate is used to evaluate 11 compounds at 4 concentrations (10^−6-10^−9 M) in duplicate. Total binding and nonspecific binding are determined in quadruplicate. Usually one standard is run with each assay. • [^3H]Prazosin is made up in Buffer A such that when 50 μl are added per well the final concentration is […] in a final assay volume of 200 μl. The final concentration should be verified by running a sample in a scintillation counter prior to adding the [^3H]prazosin to the 96 well plate. Note: The radioactivity should be prepared just before the additions are made so that it is not allowed to sit on the bench for very long. • Packard GF/B Plate Pretreatment: The filter plates are presoaked for at least 30 min in ice cold Buffer B containing 0.05% polyethyleneimine (200 μl/200 ml) to maximize filtration efficiency and minimize filter blank binding. • Incubation & Filtration: Once buffer, compounds, [^3H]prazosin and membrane have been added (and mixed), the 96 well plates are incubated for 40 min at 37° C. and spaced 3-5 min apart. At 40 min, the plates are filtered using a Tomtec Automated Cell Harvester. Filtration is immediately followed by washes of ice cold Buffer B (total vol. ˜7 ml). • Drying and Counting: Each filter plate is dried under a heat lamp for 15 min. The back of the plate is sealed and 40 μl of Packard microscint fluid are added per well. Using Packard film, each plate is heat sealed prior to being counted in a Packard Topcount Scintillation counter. A program has been written that counts each plate twice sending DPM, CPM and TSIS data to disk and printer. • Analysis of Results: Raw DPM and CPM data are captured on disk and are imported into one of several software packages (Graphpad Prism Ver 2.0, Excel) residing on the LAN. Specific binding is defined as the difference between total binding and the binding in the presence of 10 μM phentolamine. Total binding is less than 10% of the total added ligand. Software using one-site competition curve analysis is employed in the calculation of IC50 and KI (Cheng-Prusoff equation, 1973). The top and bottom of the non-linear regression are held constant at 0% and 100% inhibition. The percent inhibition at each drug concentration is the mean of duplicate determinations.

Series [2] has as its target T1, cloned human alpha-1A adrenergic receptors (α1a) (Homo sapiens, UniProt P35348).
T1 construct: expressed in transfected cells; host or cells: CHO cells, G418-resistant clone, pcDNA3 vector; membrane fragments
T1 sequence (P35348 1-466): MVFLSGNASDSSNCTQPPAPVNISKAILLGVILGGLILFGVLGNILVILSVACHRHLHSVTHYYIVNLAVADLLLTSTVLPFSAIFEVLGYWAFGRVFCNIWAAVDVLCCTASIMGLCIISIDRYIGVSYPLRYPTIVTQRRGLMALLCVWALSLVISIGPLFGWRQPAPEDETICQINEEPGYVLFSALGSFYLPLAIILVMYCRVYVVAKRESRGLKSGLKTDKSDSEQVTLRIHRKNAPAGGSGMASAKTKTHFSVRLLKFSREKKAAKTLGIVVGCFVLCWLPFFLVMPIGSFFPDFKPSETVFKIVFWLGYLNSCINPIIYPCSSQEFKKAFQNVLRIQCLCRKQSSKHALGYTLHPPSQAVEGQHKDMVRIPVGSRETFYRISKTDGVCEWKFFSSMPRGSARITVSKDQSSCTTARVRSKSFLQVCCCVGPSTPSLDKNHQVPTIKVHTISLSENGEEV
The series is described as follows: [3H]Prazosin binding to cloned human alpha-1A adrenergic receptors expressed in CHO cells. The conditions noted are these: human α-1; 6-fluoro vs 6-trifluoromethyl benzo[b]thiophene pairs; read-out: halpha 1 Ki (nM) h = human. The source says:
^3H]PRAZOSIN BINDING TO CLONED HUMAN ALPHA-1A ADRENERGIC RECEPTORS (α1a) EXPRESSED IN CHINESE HAMSTER OVARY CELLS (CHO)
Purpose: This in vitro assay is designed as a screen to identify compounds displaying a affinity for the human α1a adrenoceptor subtype expressed in the membrane fragments of CHO cells. The assay measures the ability of the test compounds to displace [^3H] prazosin from α1a sites. • The identification of multiple vascular α1-addrenoceptors (α1a, α1b, α1d) in vitro has provided impetus to define the role(s) of these subtypes in cardiovascular regulation in vivo (Vargas and Gorman, 1995). […] Prazosin is a potent antagonist of the human α1a-adrenoceptor subtype, which has been cloned and is expressed in the membrane fragments of CHO cells. hα1a Receptor: The cloning of the human α1a cDNA was accomplished first by screening a human prostate cDNA library (Clontech), from which a portion of the coding region was obtained. This DNA fragment was then used to screen a human leukocyte genomic library (Clontech), and the rest of the coding sequence was obtained. Later these two fragments were spliced together. The entire coding sequence was then fully sequenced including matching PCR sequence with original genomic coding sequence, thus ensuring splice sites were joined correctly (Schwinn et al., 1995). Once sequenced, the gene was subcloned into the expression vector pcDNA3 (Invitrogen). Plasmid DNA was then used for transfection into CHO cells and G418 resistant clones were isolated. A clone expressing high levels of the hα1a receptor (as determined by mRNA and receptor binding data) was chosen and pharmacologically characterized. Culture Media: Media Ingredients for Adherent α1a expressing CHO Culture: • A. HAM's F-12 (Cellgro) • B. 10% 0.2 micron filtered Fetal Bovine Serum (FBS)(Cellgro) • C. 1% 0.2 micron filtered Penicillin-Streptomycin (Celigro) • D. G418 0.2 micron filtered (Geneticin 400 μg/ml)(Cellgro) • Cells are cultured using established methods and procedures in either 150×25 mm culture plates (scale up to 100 plates) or a combination of these plates and 70 roller bottles. One culturing/harvest cycle typically requires 2 weeks and yields between 100-400 mg protein. Plates or bottles are incubated at 37° C.+5% CO2. Storage: Cells are harvested by mechanical scraping, washed using PBS, collected in 250 ml Corning polypropylene centrifuge tubes, spun down (1500RPM) and resuspended in dH2O 10% DMSO (final volume per harvest is approximately 50 ml). Protein determination is made using the Biorad DC Assay Kit. Finally, the appropriate volume is aliquoted into a 2 ml Corning Cryovial (10 mg/1-1.5 ml) which is stored at −80° C. Current Lot Data:
Assay Requirement: 0.5 cryovials per 96 well plate (assay volume=200 μl/well) [^3H]-Ligand: [7-methoxy-^3H]-Prazosin: 1.0 nM (NEN, NET-823) • 70-87 Ci/mmol Materials: Phentolamine mesylate (Research Biochemicals Int. #P-131) • 96 well flat bottom plates (Beckman) • Unifilter GF/B Plate (Packard) • Polyethylenimine (Sigma #P-3134) • TomTec or Packard Filtermate 196 Cell Harvesters • Packard TopCount Scintillation Counter Buffers: A: 50 mM Tris HCl; 0.1% ascorbate, pH 7.7 (incubation buffer) • B: 50 mM Tris HCl; pH 7.7 (wash buffer) Procedure: Assay additions are as follows (in the order indicated): • Total Binding=50 μl buffer A+50 μl [^3H]prazosin+100 μl membrane • Nonsp. Bd.=50 μl 10 μM phentolamine+50 μl [^3H]prazosin+100 μl membrane • Test Cpd.=50 μl compound+50 μl [^3H]prazosin+100 μl membrane • Compounds to be evaluated are weighed out to yield a 10 mM stock solution in DMSO in a 24 well polystyrene plate. This is diluted to a 0.5 mM stock in dH2O. Serial dilutions in Buffer A are made from which 50 μl additions to the plate are made in duplicate in order to achieve the final concentrations desired. Typically, one 96 well plate is used to evaluate 11 compounds at 4 concentrations (10^−6-10^−9 M) in duplicate. […]

Where [3] appears, read: r = rat, piperazines (n = 1) vs homopiperazines (n = 2), read-out: r-α1 Ki.
Setting [4] is: rat α-1, read-out: rat alpha 1 Ki.

The term Ki denotes a measure of affinity in units of concentration, obtained from inhibition or displacement. In general, melting point refers to the temperature of the solid-liquid transition.

Like-named read-outs stand apart in the source and are kept apart here.

In the case of `O=C(NCCCCN1CCN(c2csc3cc(F)ccc23)CC1)c1c[nH]c2ccccc12` [compound 814026], the Ki in series [1] (setting [3]) was determined as 12 nM.
Take `O=C(NCCCCN1CCN(c2csc3cc(F)ccc23)CC1)c1c(F)cccc1F` [compound 813918]: the Ki in series [1] (setting [4]) is 4 nM.
On to `O=C(NCCCCN1CCN(c2csc3cc(F)ccc23)CC1)c1ccco1` [compound 813371], for which the Ki in series [1] (setting [3]) and in series [1] (setting [4]) was 1.1 nM each time.
For `O=C(NCCCCN1CCN(c2csc3cc(F)ccc23)CC1)c1sc2ccccc2c1Cl` [compound 813377], the Ki in series [1] (setting [4]) amounted to 15.4 nM.
In the case of `Cl.c1cc2onc(C3CCNCC3)c2s1`, the melting point was in the range of 263 to 265 °C.
For `O=C(NCCCCN1CCN(c2csc3cc(F)ccc23)CC1)c1ccc(-c2ccccc2)cc1` [813585A], in series [2], the Ki is 5.67 nM.
Turning to `O=C(NCCCCN1CCN(c2csc3cc(F)ccc23)CC1)c1ccc(C(F)(F)F)cc1` [compound 813374], the Ki in series [1] (setting [3]) and in series [1] (setting [4]) was 32.4 nM each time.
On to `O=C(NCCCCN1CCN(c2csc3cc(F)ccc23)CC1)c1ccc2ccccc2c1` [compound 813372], for which the Ki in series [1] (setting [3]) was found to be 40.6 nM.
With `CCOc1ccc(C(=O)NCCCCN2CCN(c3csc4cc(F)ccc34)CC2)cc1` [compound 813914], in series [1] (setting [4]), the Ki is 3 nM.
Turning to `COc1cccc(C(=O)NCCCCN2CCN(c3csc4cc(F)ccc34)CC2)c1` [compound 813380], the Ki in series [1] (setting [3]) was 21.9 nM.
In the case of `O=C(NCCCCN1CCN(c2csc3cc(F)ccc23)CC1)c1ccc(Br)cc1` [compound 813381], the Ki in series [1] (setting [4]) is 32.3 nM.
Turning to `O=C(NCCCCN1CCN(c2csc3cc(F)ccc23)CC1)c1cc2ccccc2[nH]1` [compound 813373], in series [1] (setting [3]), the Ki worked out at 25.2 nM.
For the molecule `COc1ccccc1C(=O)NCCCCN1CCN(c2csc3cc(F)ccc23)CC1` [compound 813368], the Ki in series [1] (setting [3]) and in series [1] (setting [4]) was 4.1 nM throughout.
For `O=C(NCCCCN1CCN(c2csc3cc(F)ccc23)CC1)c1cc2ccccc2s1` [compound 811614], the Ki in series [1] (setting [3]) and in series [1] (setting [4]) was 5 nM in each case.
As to `CCCCOc1ccc(C(=O)NCCCCN2CCN(c3csc4cc(F)ccc34)CC2)cc1` [compound 813376], in series [1] (setting [4]), the Ki was 10.9 nM.
Take `O=C(NCCCCN1CCN(c2csc3cc(F)ccc23)CC1)c1ccc2c(c1)OCO2` [compound 813375]: in series [1] (setting [4]), the Ki was determined as 2.6 nM.
For `O=C(NCCCCN1CCN(c2csc3cc(F)ccc23)CC1)c1ccc(Cl)cc1` [compound 813754], in series [1] (setting [4]), the Ki turned out to be 7 nM.
As to `O=C(NCCCCN1CCN(c2csc3cc(F)ccc23)CC1)c1ccc2[nH]ccc2c1` [compound 814018], the Ki in series [1] (setting [3]) was 5 nM.
